Reference: ChEMBL document CHEMBL1770133, “Design of potent and selective GPR119 agonists for type II diabetes” (Bioorg Med Chem Lett, 2011)
pEC50, pIC50: −log10 of the molar value. ≈ marks a conversion by molar mass, not a printed value.

Legend:
[1] = biological target: T1, Glucose-dependent insulinotropic receptor (Mus musculus, UniProt Q7TQP3); assay: Agonist activity at mouse GPR119 expressed in CHO cells co-expressing Galpha15 assessed as increase of intracellular cAMP accumulation after 60 mins by HTRF assay; type: functional, cell-based
T1 sequence (Q7TQP3 whole entry): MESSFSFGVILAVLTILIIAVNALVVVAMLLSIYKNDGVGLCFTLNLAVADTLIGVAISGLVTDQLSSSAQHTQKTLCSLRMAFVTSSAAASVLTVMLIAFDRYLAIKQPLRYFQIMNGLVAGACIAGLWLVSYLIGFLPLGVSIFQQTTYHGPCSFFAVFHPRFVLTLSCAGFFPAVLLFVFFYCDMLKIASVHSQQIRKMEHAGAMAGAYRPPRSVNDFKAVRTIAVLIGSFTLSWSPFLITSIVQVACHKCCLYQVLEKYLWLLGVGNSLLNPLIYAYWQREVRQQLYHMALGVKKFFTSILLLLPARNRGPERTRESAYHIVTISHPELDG

[2] = biological target: T2, Glucose-dependent insulinotropic receptor (Homo sapiens, UniProt Q8TDV5); assay: Agonist activity at human GPR119 expressed in CHO cells co-expressing Galpha15 assessed as increase of intracellular cAMP accumulation after 60 mins by HTRF assay; type: functional, cell-based
T2 sequence (Q8TDV5 whole entry): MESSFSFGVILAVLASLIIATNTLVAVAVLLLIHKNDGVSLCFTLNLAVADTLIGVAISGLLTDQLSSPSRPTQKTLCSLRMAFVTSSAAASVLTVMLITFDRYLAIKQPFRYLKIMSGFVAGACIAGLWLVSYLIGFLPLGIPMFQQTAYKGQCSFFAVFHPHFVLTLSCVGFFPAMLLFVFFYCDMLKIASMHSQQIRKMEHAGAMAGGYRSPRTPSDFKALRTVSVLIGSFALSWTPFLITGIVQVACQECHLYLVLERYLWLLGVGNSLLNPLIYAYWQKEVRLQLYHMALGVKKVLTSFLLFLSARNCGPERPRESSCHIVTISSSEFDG

[3] = biological target: T3, Voltage-gated inwardly rectifying potassium channel KCNH2 (Homo sapiens, UniProt Q12809); assay: Inhibition of human ERG
Mus musculus [4] = assay: Antidiabetic activity in high fat fed C57BL/6 mouse assessed as change in AUC of blood glucose level at 30 mg/kg, po qd administered 1 hr before glucose challenge measured up to 120 mins by oral glucose tolerance test relative to control; type: functional, C57BL6
[5] = Volume of distribution at steady state in mouse at 1 mg/kg, iv and 10 mg/kg, po; type: ADME, organism-based; conditions: in vivo, read-out: Vdss
[6] = Half life in mouse at 1 mg/kg, iv and 10 mg/kg, po; type: ADME, organism-based; conditions: in vivo
[7] = Clearance in mouse at 1 mg/kg, iv and 10 mg/kg, po; type: ADME, organism-based; conditions: in vivo
Mus musculus [8] = assay: Dose normalized AUC in mouse at 1 mg/kg, iv and 10 mg/kg, po; type: ADME, organism-based; conditions: in vivo
Canis familiaris = organism: Canis familiaris; assay: Cardiotoxicity in dog assessed as QTc prolongation; type: toxicity, organism-based, Canis lupus familiaris; conditions: in vivo
[9] = Solubility of compound in PEG400 after 3 to 7 days; type: physicochemical
Mus musculus [10] = assay: Antidiabetic activity in high fat fed po dosed C57BL/6 mouse assessed as change in AUC of blood glucose level administered 1 hr before glucose challenge measured up to 120 mins by oral glucose tolerance test; type: functional; conditions: C57BL6, Blood, read-out: MED
[11] = biological target: T3, Voltage-gated inwardly rectifying potassium channel KCNH2; assay: Inhibition of human ERG by patch clamp technique
[12] = biological target: T4, Glucose-dependent insulinotropic receptor (Mus musculus) (UniProt Q7TQP3); assay: Agonist activity at mouse GPR119 expressed in CHO cells co-expressing Galpha15 assessed as increase of intracellular cAMP accumulation at 10 uM after 60 mins by HTRF assay; type: functional, cell-based
T4 sequence (whole entry): T1 sequence (Q7TQP3 whole entry)

[13] = biological target: T5, Glucose-dependent insulinotropic receptor (Homo sapiens) (UniProt Q8TDV5); assay: Agonist activity at human GPR119 expressed in CHO cells co-expressing Galpha15 assessed as increase of intracellular cAMP accumulation at 10 uM after 60 mins by HTRF assay; type: functional, cell-based
T5 sequence (whole entry): T2 sequence (Q8TDV5 whole entry)

Mus musculus [14] = assay: Antidiabetic activity in high fat fed C57BL/6 mouse assessed as change in AUC of blood glucose level at 10 mg/kg, po qd administered 1 hr before glucose challenge measured up to 120 mins by oral glucose tolerance test relative to control; type: functional, C57BL6
Mus musculus [15] = assay: Antidiabetic activity in high fat fed C57BL/6 mouse assessed as change in AUC of blood glucose level at 1 mg/kg, po qd administered 1 hr before glucose challenge measured up to 120 mins by oral glucose tolerance test relative to control; type: functional, C57BL6
Mus musculus [16] = assay: Antidiabetic activity in high fat fed C57BL/6 mouse assessed as change in AUC of blood glucose level at 3 mg/kg, po qd administered 1 hr before glucose challenge measured up to 120 mins by oral glucose tolerance test relative to control; type: functional, C57BL6

T3 sequence (Q12809 whole entry): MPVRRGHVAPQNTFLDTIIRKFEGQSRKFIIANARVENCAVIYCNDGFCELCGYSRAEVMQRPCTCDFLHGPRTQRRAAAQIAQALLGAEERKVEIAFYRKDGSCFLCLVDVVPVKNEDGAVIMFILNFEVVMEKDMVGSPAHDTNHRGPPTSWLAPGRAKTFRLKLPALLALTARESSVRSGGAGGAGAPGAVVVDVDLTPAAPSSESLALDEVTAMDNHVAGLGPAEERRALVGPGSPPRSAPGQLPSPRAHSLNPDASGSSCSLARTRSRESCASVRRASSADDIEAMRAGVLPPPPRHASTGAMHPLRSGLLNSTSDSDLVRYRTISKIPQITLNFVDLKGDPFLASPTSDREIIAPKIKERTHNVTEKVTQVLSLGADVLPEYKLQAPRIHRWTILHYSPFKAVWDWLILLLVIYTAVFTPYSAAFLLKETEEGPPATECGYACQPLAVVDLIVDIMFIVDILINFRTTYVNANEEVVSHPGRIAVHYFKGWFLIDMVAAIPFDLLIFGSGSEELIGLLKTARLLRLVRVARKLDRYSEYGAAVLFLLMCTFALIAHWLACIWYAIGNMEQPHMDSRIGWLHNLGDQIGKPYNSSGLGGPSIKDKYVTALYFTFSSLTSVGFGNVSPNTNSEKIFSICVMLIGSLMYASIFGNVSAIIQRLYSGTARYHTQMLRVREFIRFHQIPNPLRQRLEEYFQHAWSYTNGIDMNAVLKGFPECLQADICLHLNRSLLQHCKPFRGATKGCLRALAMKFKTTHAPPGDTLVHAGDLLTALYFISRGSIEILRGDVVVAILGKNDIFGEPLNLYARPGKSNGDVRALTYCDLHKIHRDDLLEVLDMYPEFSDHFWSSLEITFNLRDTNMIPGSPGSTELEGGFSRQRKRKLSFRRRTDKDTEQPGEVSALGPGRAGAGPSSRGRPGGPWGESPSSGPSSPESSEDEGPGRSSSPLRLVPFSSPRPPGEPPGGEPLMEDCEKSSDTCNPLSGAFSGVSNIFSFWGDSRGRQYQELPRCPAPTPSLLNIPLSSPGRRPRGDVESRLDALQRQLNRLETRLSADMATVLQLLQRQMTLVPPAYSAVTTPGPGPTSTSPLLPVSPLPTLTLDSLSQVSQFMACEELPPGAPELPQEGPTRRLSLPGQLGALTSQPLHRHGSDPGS

Row | Compound | pEC50 [1] | pEC50 [2] | further results
1 | O=C(NC1CC1)c1ccc(OCC2CC2C2CCN(c3ncc(Cl)cn3)CC2)cc1F (racemic; 52) | 7.64 | 7.70 | –
2 | CS(=O)(=O)c1ccc(N2CCC(C3CCN(c4ncc(Cl)cn4)CC3)CC2)cc1 | 8.10 | 8.30 | –
3 | Cc1cnc(N2CCC(C3CCN(c4cc(C#N)nc(C)n4)CC3)CC2)nc1 | 8.00 | 8.10 | pIC50 [3]: 5.74; Activity (Mus musculus [4]): 46%
4 | CS(=O)(=O)c1ccc(N2CCC(C3CCN(c4ccc(Cl)cn4)CC3)CC2)cc1 | 6.88 | 7.32 | Vd [5]: 2.3 L/kg; half-life [6]: 13.5 h; clearance [7]: 2 mL/min/kg; AUC (Mus musculus [8]): 19.3 µM·kg·h/mg
5 | CC(C)(C)OC(=O)N1CCC(C2CCN(c3ccc(C(N)=O)cc3)CC2)CC1 | 6.78 | 7.12 | –
6 | CC(=O)c1ccc(N2CCC(C3CCN(C(=O)OC(C)(C)C)CC3)CC2)cc1 | 6.47 | 7.60 | –
7 | CC(C)(C)OC(=O)N1CCC(C2CCN(c3cnccn3)CC2)CC1 | 6.85 | 6.99 | –
8 | CC(C)(C)OC(=O)N1CCC(C2CCN(c3ccccn3)CC2)CC1 | 5.60 | 6.08 | –
9 | Cc1nc(C#N)cc(N2CCC(C3CCN(C(=O)OC(C)(C)C)CC3)CC2)n1 | 8.70 | 8.70 | –
10 | Cc1cnc(N2CCC([C@H]3C[C@H]3CCOc3nc(C)cc(C#N)n3)CC2)nc1 | 8.70 | 8.70 | Activity (Canis familiaris): Toxic; solubility [9]: 24800 µg/mL (≈ 65.5 mM); minimal effective dose (Mus musculus [10]): 0.01 mg/kg
11 | O=C(NC1CC1)c1ccc(OCC2CC2C2CCN(c3ncc(Cl)cn3)CC2)cc1F (racemic; 51) | 8.05 | 7.42 | –
12 | Cc1ccc(N2CCC(C3CCN(c4ccc(S(C)(=O)=O)cc4)CC3)CC2)nc1 | 7.14 | 7.74 | –
13 | CS(=O)(=O)c1ccc(OCC[C@@H]2C[C@@H]2C2CCN(c3ncc(Cl)cn3)CC2)nc1 | 8.40 | 8.40 | Vd [5]: 2.1 L/kg; Activity (Canis familiaris): Non-toxic; half-life [6]: 12.4 h; clearance [7]: 2.1 mL/min/kg; AUC (Mus musculus [8]): 12.1 µM·kg·h/mg; solubility [9]: 7100 µg/mL (≈ 16.2 mM); pIC50 [11]: 4.72; minimal effective dose (Mus musculus [10]): 1 mg/kg
14 | Clc1cnc(N2CCC([C@H]3C[C@H]3CCOc3ccc(-n4ccnn4)cn3)CC2)nc1 | 8.40 | 8.70 | solubility [9]: 11400 µg/mL (≈ 26.8 mM); pIC50 [11]: 4.36; minimal effective dose (Mus musculus [10]): 1 mg/kg
15 | CC(C)(C)OC(=O)N1CCC(C2CCN(c3ccc(S(C)(=O)=O)cc3)CC2)CC1 | 7.44 | 7.66 | Vd [5]: 6.9 L/kg; half-life [6]: 0.6 h; clearance [7]: 120 mL/min/kg; AUC (Mus musculus [8]): 0.09 µM·kg·h/mg
16 | CSc1ccc(N2CCC(C3CCN(C(=O)OC(C)(C)C)CC3)CC2)cc1 | 6.29 | 6.22 | –
17 | Cc1cc(N2CCC(C3CCN(C(=O)OC(C)(C)C)CC3)CC2)nc(C#N)n1 | 8.70 | 9.00 | –
18 | C[S+]([O-])c1ccc(N2CCC(C3CCN(C(=O)OC(C)(C)C)CC3)CC2)cc1 (configuration not stated) | 6.88 | 7.96 | –
19 | O=C(NC1CC1)c1ccc(OCC2CC2CC2CCN(c3ncc(Cl)cn3)CC2)cc1F (racemic; 56) | 7.44 | 7.74 | pIC50 [3]: 5.92
20 | CC(C)(C)OC(=O)N1CCC(C2CCN(c3cccc(S(C)(=O)=O)c3)CC2)CC1 | – | 5.72 | Activity [12]: < 10%
21 | CC(C)(C)OC(=O)N1CCC(C2CCN(c3cccc(C(N)=O)c3)CC2)CC1 | – | – | Activity [12]: < 10%; Activity [13]: < 10%
22 | Cc1cnc(N2CCC(C3CCN(c4ccc(S(C)(=O)=O)cc4)CC3)CC2)nc1 | 7.35 | 7.24 | –
23 | Cc1ccc(N2CCC(C3CCN(C(=O)OC(C)(C)C)CC3)CC2)cc1 | 5.72 | 6.47 | –
24 | Cc1ccnc(N2CCC(C3CCN(c4ccc(S(C)(=O)=O)cc4)CC3)CC2)n1 | – | – | Activity [12]: < 10%; Activity [13]: < 10%

Row | Compound | pEC50 [1] | pEC50 [2] | further results
25 | CC(C)(C)OC(=O)N1CCC(C2CCN(c3ccncn3)CC2)CC1 | 6.42 | 6.94 | –
26 | CC(C)(C)OC(=O)N1CCC(C2CCN(c3cccnc3)CC2)CC1 | – | 5.44 | Activity [12]: < 10%
27 | CC(C)(C)OC(=O)N1CCC(C2CCN(c3ccccc3)CC2)CC1 | – | 5.85 | Activity [12]: < 10%
28 | O=C(NC1CC1)c1ccc(OCC2CC2CC2CCN(c3ncc(Cl)cn3)CC2)cc1F (racemic; 57) | 7.74 | 8.05 | pIC50 [3]: < 4.52
29 | O=C(NC1CC1)c1ccc(OCCC2CC2C2CCN(c3ncc(Cl)cn3)CC2)cc1F (racemic) | 9.40 | 9.52 | pIC50 [3]: < 4.52
30 | CC(C)(C)OC(=O)N1CCC(C2CCN(c3ccnc(C#N)n3)CC2)CC1 | 7.96 | 8.22 | –
31 | O=C(NC1CC1)c1ccc(OCCC2CC2C2CCN(c3ncc(Cl)cn3)CC2)cc1F (single isomer, unassigned; (+)) | 8.30 | 7.85 | pIC50 [3]: < 4.52
32 | CS(=O)(=O)c1ccc(N2CCC(C3CCN(c4cnccn4)CC3)CC2)cc1 | 6.62 | 6.70 | –
33 | Clc1cnc(N2CCC([C@H]3C[C@H]3CCOc3ccc(-n4ccnn4)cc3)CC2)nc1 | 8.22 | 8.40 | solubility [9]: 5000 µg/mL (≈ 11.8 mM); minimal effective dose (Mus musculus [10]): 10 mg/kg
34 | CC(C)(C)OC(=O)N1CCC(C2CCN(c3cc(C#N)ncn3)CC2)CC1 | 7.51 | 8.22 | –
35 | Cc1cc(N2CCC(C3CCN(c4ncc(Cl)cn4)CC3)CC2)nc(C#N)n1 | 7.96 | 8.70 | Activity (Mus musculus [4]): 37%
36 | CS(=O)(=O)c1ccc(N2CCC(C3CCN(c4ccccn4)CC3)CC2)cc1 | 6.17 | 7.41 | –
37 | CS(=O)(=O)c1ccc(N2CCC(C3CCN(c4ccc(C#N)cn4)CC3)CC2)cc1 | 7.39 | 7.21 | –
38 | CS(=O)(=O)c1ccc(N2CCC(C3CCN(c4ccc(C(F)(F)F)cn4)CC3)CC2)cc1 | 8.10 | 7.89 | –
39 | CS(=O)(=O)c1ccc(N2CCC(C3CCN(c4ccc(F)cn4)CC3)CC2)cc1 | 6.69 | 7.72 | –
40 | CS(=O)(=O)c1ccc(N2CCC(C3CCN(c4ncccn4)CC3)CC2)cc1 | 6.05 | 7.01 | –
41 | Cc1cnc(N2CCC(C3CCN(c4cc(C#N)nc(C)n4)CC3)CC2)cn1 | 7.09 | 7.52 | pIC50 [3]: 5.27; Activity (Mus musculus [4]): 7%
42 | O=C(NC1CC1)c1ccc(OCCC2CC2C2CCN(c3ncc(Cl)cn3)CC2)cc1F (single isomer, unassigned; (-)) | 8.70 | 8.52 | pIC50 [3]: 5.59
43 | CC(C)(C)OC(=O)N1CCC(C2CCN(c3ncccn3)CC2)CC1 | 6.28 | 6.28 | –
44 | Cc1ccccc1N1CCC(C2CCN(C(=O)OC(C)(C)C)CC2)CC1 | – | – | Activity [12]: < 10%; Activity [13]: < 10%
45 | O=C(NC1CC1)c1ccc(OCCCC2CC2CCCC2CCN(c3ncc(Cl)cn3)CC2)cc1F (racemic) | 9.10 | 9.70 | –
46 | Cc1cnc(N2CCC(C3CCN(c4cc(C)nc(C#N)n4)CC3)CC2)cn1 | 7.19 | 7.72 | Activity (Mus musculus [14]): 30%; Activity (Mus musculus [15]): 7%; Activity (Mus musculus [16]): 26%; Activity (Mus musculus [4]): 35%
47 | Cc1cccc(N2CCC(C3CCN(C(=O)OC(C)(C)C)CC3)CC2)c1 | – | 6.29 | Activity [12]: < 10%
